Several values for one entry are separate records, joined by “and”; a condition that tells them apart may be missing. Equal values may be shown once. Numbers after ± are expanded uncertainties.
Test: mn = molality of the nth substance listed, in mol/kg
Conditions: 101 kPa, Liquid; for speed of sound: Sing-around technique in a fixed-path interferometer; for mass density: Vibrating tube method

CC(CO)(CO)CO [1,1,1-trimethylolethane] + O
speed of sound
Conditions | 278.15 K | 283.15 K | 288.15 K | 293.15 K | 298.15 K | 308.15 K | 318.15 K
m1 = 0.09995 | 1433.9 ± 0.72 m/s and 1433.8 ± 0.72 m/s | 1454.4 ± 0.73 m/s | 1472.6 ± 0.74 m/s | 1488.5 ± 0.74 m/s | 1502.4 ± 0.75 m/s and 1502.5 ± 0.75 m/s | 1525 ± 0.75 m/s | 1540.9 ± 0.76 m/s
m1 = 0.1985 | 1441.3 ± 0.73 m/s | 1461.3 ± 0.73 m/s | 1479 ± 0.74 m/s | 1494.5 ± 0.75 m/s | 1508 ± 0.75 m/s and 1508.1 ± 0.75 m/s | 1529.9 ± 0.76 m/s | 1545.2 ± 0.76 m/s and 1545.5 ± 0.76 m/s
m1 = 0.291 | 1448.2 ± 0.73 m/s | 1467.7 ± 0.74 m/s | 1484.9 ± 0.74 m/s | 1500.1 ± 0.75 m/s | 1513.2 ± 0.75 m/s | 1534.4 ± 0.76 m/s and 1534.7 ± 0.76 m/s | 1549.1 ± 0.77 m/s and 1549 ± 0.77 m/s
m1 = 0.3923 | 1455.6 ± 0.74 m/s | 1474.6 ± 0.74 m/s | 1491.3 ± 0.75 m/s and 1491.4 ± 0.75 m/s | 1506.1 ± 0.75 m/s | 1518.8 ± 0.76 m/s | 1539.3 ± 0.76 m/s and 1539.6 ± 0.77 m/s | 1553.3 ± 0.77 m/s and 1553.2 ± 0.77 m/s
m1 = 0.4962 | 1463.1 ± 0.74 m/s | 1481.5 ± 0.75 m/s and 1481.6 ± 0.75 m/s | 1497.8 ± 0.75 m/s | 1512.1 ± 0.76 m/s | 1524.4 ± 0.76 m/s and 1524.5 ± 0.76 m/s | 1544.2 ± 0.77 m/s and 1544.5 ± 0.77 m/s | 1557.6 ± 0.77 m/s and 1557.4 ± 0.77 m/s
m1 = 0.6042 | 1470.7 ± 0.75 m/s | 1488.6 ± 0.75 m/s | 1504.4 ± 0.76 m/s | 1518.2 ± 0.76 m/s | 1530.1 ± 0.77 m/s and 1530.2 ± 0.77 m/s | 1549.2 ± 0.77 m/s and 1548.9 ± 0.77 m/s | 1561.9 ± 0.78 m/s and 1561.7 ± 0.78 m/s

OCC(CO)(CO)CO [2,2-bis(hydroxymethyl)-1,3-propanediol] + O
Conditions | mass density | speed of sound
273.15 K, m1 = 0.1002 | 1003.54 ± 0.035 kg/m3 and 1003.55 ± 0.035 kg/m3 | –
273.15 K, m1 = 0.1501 | 1005.3 ± 0.036 kg/m3 and 1005.29 ± 0.036 kg/m3 | –
273.15 K, m1 = 0.2001 | 1007.05 ± 0.037 kg/m3 and 1007.04 ± 0.037 kg/m3 | –
273.15 K, m1 = 0.2503 | 1008.77 ± 0.038 kg/m3 | –
273.15 K, m1 = 0.3005 | 1010.48 ± 0.039 kg/m3 | –
273.15 K, m1 = 0.35 | 1012.15 ± 0.04 kg/m3 and 1012.16 ± 0.04 kg/m3 | –
278.15 K, m1 = 0.1002 | – | 1432.6 ± 0.72 m/s and 1432.7 ± 0.72 m/s
278.15 K, m1 = 0.1501 | – | 1435.8 ± 0.73 m/s
278.15 K, m1 = 0.2001 | – | 1439 ± 0.73 m/s
278.15 K, m1 = 0.2503 | – | 1442.1 ± 0.73 m/s and 1442.2 ± 0.73 m/s
278.15 K, m1 = 0.3005 | – | 1445.3 ± 0.73 m/s
278.15 K, m1 = 0.35 | – | 1448.3 ± 0.73 m/s and 1448.4 ± 0.73 m/s
283.15 K, m1 = 0.1002 | 1003.23 ± 0.035 kg/m3 | 1453.3 ± 0.73 m/s
283.15 K, m1 = 0.1501 | 1004.96 ± 0.036 kg/m3 | 1456.2 ± 0.73 m/s and 1456.3 ± 0.73 m/s
283.15 K, m1 = 0.2001 | 1006.68 ± 0.037 kg/m3 and 1006.69 ± 0.037 kg/m3 | 1459.2 ± 0.73 m/s
283.15 K, m1 = 0.2503 | 1008.38 ± 0.038 kg/m3 and 1008.39 ± 0.038 kg/m3 | 1462.2 ± 0.74 m/s
283.15 K, m1 = 0.3005 | 1010.07 ± 0.039 kg/m3 and 1010.08 ± 0.039 kg/m3 | 1465.1 ± 0.74 m/s
283.15 K, m1 = 0.35 | 1011.72 ± 0.04 kg/m3 and 1011.73 ± 0.04 kg/m3 | 1468 ± 0.74 m/s
288.15 K, m1 = 0.1002 | 1002.59 ± 0.035 kg/m3 | 1471.6 ± 0.74 m/s
288.15 K, m1 = 0.1501 | 1004.3 ± 0.036 kg/m3 | 1474.4 ± 0.74 m/s
288.15 K, m1 = 0.2001 | 1006 ± 0.037 kg/m3 and 1006.01 ± 0.037 kg/m3 | 1477.2 ± 0.74 m/s
288.15 K, m1 = 0.2503 | 1007.68 ± 0.038 kg/m3 and 1007.69 ± 0.038 kg/m3 | 1479.9 ± 0.74 m/s
288.15 K, m1 = 0.3005 | 1009.35 ± 0.038 kg/m3 and 1009.36 ± 0.038 kg/m3 | 1482.6 ± 0.74 m/s and 1482.7 ± 0.74 m/s
288.15 K, m1 = 0.35 | 1010.98 ± 0.039 kg/m3 and 1010.99 ± 0.039 kg/m3 | 1485.3 ± 0.75 m/s and 1485.4 ± 0.75 m/s
293.15 K, m1 = 0.1002 | 1001.66 ± 0.034 kg/m3 | 1487.7 ± 0.74 m/s
293.15 K, m1 = 0.1501 | 1003.35 ± 0.035 kg/m3 | 1490.3 ± 0.74 m/s
293.15 K, m1 = 0.2001 | 1005.04 ± 0.036 kg/m3 and 1005.03 ± 0.036 kg/m3 | 1492.9 ± 0.75 m/s and 1492.8 ± 0.75 m/s
293.15 K, m1 = 0.2503 | 1006.7 ± 0.037 kg/m3 and 1006.71 ± 0.037 kg/m3 | 1495.5 ± 0.75 m/s
293.15 K, m1 = 0.3005 | 1008.35 ± 0.038 kg/m3 | 1498 ± 0.75 m/s and 1498.1 ± 0.75 m/s
293.15 K, m1 = 0.35 | 1009.97 ± 0.039 kg/m3 | 1500.6 ± 0.75 m/s
298.15 K, m1 = 0.1002 | 1000.47 ± 0.034 kg/m3 | 1501.7 ± 0.75 m/s
298.15 K, m1 = 0.1501 | 1002.14 ± 0.035 kg/m3 and 1002.15 ± 0.035 kg/m3 | 1504.1 ± 0.75 m/s and 1504.2 ± 0.75 m/s
298.15 K, m1 = 0.2001 | 1003.82 ± 0.036 kg/m3 | 1506.6 ± 0.75 m/s
298.15 K, m1 = 0.2503 | 1005.47 ± 0.037 kg/m3 | 1509 ± 0.75 m/s and 1509.1 ± 0.75 m/s
298.15 K, m1 = 0.3005 | 1007.1 ± 0.038 kg/m3 and 1007.11 ± 0.038 kg/m3 | 1511.5 ± 0.75 m/s
298.15 K, m1 = 0.35 | 1008.7 ± 0.039 kg/m3 and 1008.71 ± 0.039 kg/m3 | 1513.9 ± 0.76 m/s
303.15 K, m1 = 0.1002 | 999.044 ± 0.034 kg/m3 and 999.045 ± 0.034 kg/m3 | 1513.8 ± 0.75 m/s
303.15 K, m1 = 0.1501 | 1000.71 ± 0.035 kg/m3 | 1516.2 ± 0.75 m/s
303.15 K, m1 = 0.2001 | 1002.36 ± 0.036 kg/m3 and 1002.37 ± 0.036 kg/m3 | 1518.5 ± 0.75 m/s
303.15 K, m1 = 0.2503 | 1004 ± 0.036 kg/m3 | 1520.8 ± 0.76 m/s
303.15 K, m1 = 0.3005 | 1005.62 ± 0.037 kg/m3 | 1523.1 ± 0.76 m/s and 1523 ± 0.76 m/s
303.15 K, m1 = 0.35 | 1007.22 ± 0.038 kg/m3 and 1007.21 ± 0.038 kg/m3 | 1525.3 ± 0.76 m/s
308.15 K, m1 = 0.1002 | 997.404 ± 0.035 kg/m3 and 997.402 ± 0.035 kg/m3 | 1524.3 ± 0.75 m/s
308.15 K, m1 = 0.1501 | 999.052 ± 0.035 kg/m3 and 999.053 ± 0.035 kg/m3 | 1526.5 ± 0.76 m/s and 1526.4 ± 0.76 m/s
308.15 K, m1 = 0.2001 | 1000.7 ± 0.035 kg/m3 | 1528.6 ± 0.76 m/s
308.15 K, m1 = 0.2503 | 1002.33 ± 0.036 kg/m3 | 1530.8 ± 0.76 m/s
308.15 K, m1 = 0.3005 | 1003.93 ± 0.037 kg/m3 and 1003.94 ± 0.037 kg/m3 | 1533 ± 0.76 m/s and 1532.9 ± 0.76 m/s
308.15 K, m1 = 0.35 | 1005.51 ± 0.038 kg/m3 and 1005.52 ± 0.038 kg/m3 | 1535.1 ± 0.76 m/s and 1535 ± 0.76 m/s
318.15 K, m1 = 0.1002 | 993.545 ± 0.037 kg/m3 and 993.543 ± 0.037 kg/m3 | 1540.4 ± 0.76 m/s
318.15 K, m1 = 0.1501 | 995.176 ± 0.036 kg/m3 and 995.177 ± 0.036 kg/m3 | 1542.3 ± 0.76 m/s and 1542.4 ± 0.76 m/s
318.15 K, m1 = 0.2001 | 996.806 ± 0.036 kg/m3 and 996.808 ± 0.036 kg/m3 | 1544.2 ± 0.76 m/s and 1544.3 ± 0.76 m/s
318.15 K, m1 = 0.2503 | 998.41 ± 0.036 kg/m3 and 998.412 ± 0.036 kg/m3 | 1546.2 ± 0.77 m/s and 1546.3 ± 0.77 m/s
318.15 K, m1 = 0.3005 | 1000 ± 0.035 kg/m3 | 1548.1 ± 0.77 m/s and 1548.2 ± 0.77 m/s
318.15 K, m1 = 0.35 | 1001.56 ± 0.036 kg/m3 | 1549.9 ± 0.77 m/s and 1550 ± 0.77 m/s and 1550.1 ± 0.77 m/s

From the NIST ThermoML archive (doi:10.1021/je300175w)
